The numbers were not newly measured in publication PMC4282593 (Cancer chemotherapy and pharmacology, 2014), which cites them from elsewhere.

The data set deals with recurrent/refractory NBs. As to conditions: ref [23].

In the case of `C[C@]12O[C@H](C[C@]1(O)CO)n1c3ccccc3c3c4c(c5c6ccccc6n2c5c31)CNC4=O` [lestaurtinib], the “patients with durable responses” value (8/16 patients treated at a biologically effective dose) is 50%. Also, where the note is “Phase 1 clinical trial in NB patients”, the side effects result was “limited to mild, including reversible liver transaminase elevations”. Under “patients treated at a biologically effective dose”, the “duration of durable responses, on average” value is given as “more than 10 months”.
